Measured values published in the OPERA property sets (Mansouri et al. 2018).

## O=C(O)c1ccccc1-c1ccccc1C(=O)O
  logP: 2.07

## N#CCC(=O)Nc1ccc(Cl)c(Cl)c1
  logP: 2.72
